Tests used:
A-375 = assay: Cytotoxicity against human A375 cells expressing B-RafV600E mutant; assay type: functional, cell-based
[1] = target: Serine/threonine-protein kinase B-raf (Homo sapiens, UniProt P15056); assay: Inhibition of human recombinant B-Raf expressed in Sf9 cells assessed as inhibition of Mek1 phosphorylation
HT-29 = assay: Cytotoxicity against human HT-29 cells expressing B-RafV600E mutant; assay type: functional, cell-based
Caco-2 = assay: Cytotoxicity against human Caco-2 cells expressing wild type B-Raf; assay type: functional, cell-based
[2] = target: Protein kinase C alpha type (Homo sapiens, UniProt P17252); assay: Inhibition of PKCalpha
[3] = target: Tyrosine-protein kinase Lyn (Homo sapiens, UniProt P07948); assay: Inhibition of LYN
Sequence of Tyrosine-protein kinase Lyn (P07948 whole entry): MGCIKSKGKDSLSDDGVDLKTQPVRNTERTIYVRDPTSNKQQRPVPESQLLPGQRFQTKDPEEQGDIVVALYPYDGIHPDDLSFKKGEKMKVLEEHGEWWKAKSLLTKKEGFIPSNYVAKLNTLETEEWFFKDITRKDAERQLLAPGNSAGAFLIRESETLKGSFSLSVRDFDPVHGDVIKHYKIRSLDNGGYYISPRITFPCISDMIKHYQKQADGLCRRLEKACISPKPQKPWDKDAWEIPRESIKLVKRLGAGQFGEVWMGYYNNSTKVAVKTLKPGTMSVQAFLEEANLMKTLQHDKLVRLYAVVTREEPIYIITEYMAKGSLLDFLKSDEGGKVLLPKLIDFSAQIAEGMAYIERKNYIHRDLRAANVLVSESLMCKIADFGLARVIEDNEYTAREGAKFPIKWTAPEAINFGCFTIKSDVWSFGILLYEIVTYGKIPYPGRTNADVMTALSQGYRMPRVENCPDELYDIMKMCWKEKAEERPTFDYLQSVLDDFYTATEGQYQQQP

[4] = target: Tyrosine-protein kinase ABL1 (Homo sapiens, UniProt P00519)
[5] = target: Inhibitor of nuclear factor kappa-B kinase subunit alpha (Homo sapiens, UniProt O15111); assay: Inhibition of IKKalpha
[6] = target: Protein kinase C beta type (Homo sapiens, UniProt P05771); assay: Inhibition of PKCbeta
[7] = target: Platelet-derived growth factor receptor alpha (Homo sapiens, UniProt P16234); assay: Inhibition of PDGFRalpha
Sequence of Platelet-derived growth factor receptor alpha (P16234 whole entry): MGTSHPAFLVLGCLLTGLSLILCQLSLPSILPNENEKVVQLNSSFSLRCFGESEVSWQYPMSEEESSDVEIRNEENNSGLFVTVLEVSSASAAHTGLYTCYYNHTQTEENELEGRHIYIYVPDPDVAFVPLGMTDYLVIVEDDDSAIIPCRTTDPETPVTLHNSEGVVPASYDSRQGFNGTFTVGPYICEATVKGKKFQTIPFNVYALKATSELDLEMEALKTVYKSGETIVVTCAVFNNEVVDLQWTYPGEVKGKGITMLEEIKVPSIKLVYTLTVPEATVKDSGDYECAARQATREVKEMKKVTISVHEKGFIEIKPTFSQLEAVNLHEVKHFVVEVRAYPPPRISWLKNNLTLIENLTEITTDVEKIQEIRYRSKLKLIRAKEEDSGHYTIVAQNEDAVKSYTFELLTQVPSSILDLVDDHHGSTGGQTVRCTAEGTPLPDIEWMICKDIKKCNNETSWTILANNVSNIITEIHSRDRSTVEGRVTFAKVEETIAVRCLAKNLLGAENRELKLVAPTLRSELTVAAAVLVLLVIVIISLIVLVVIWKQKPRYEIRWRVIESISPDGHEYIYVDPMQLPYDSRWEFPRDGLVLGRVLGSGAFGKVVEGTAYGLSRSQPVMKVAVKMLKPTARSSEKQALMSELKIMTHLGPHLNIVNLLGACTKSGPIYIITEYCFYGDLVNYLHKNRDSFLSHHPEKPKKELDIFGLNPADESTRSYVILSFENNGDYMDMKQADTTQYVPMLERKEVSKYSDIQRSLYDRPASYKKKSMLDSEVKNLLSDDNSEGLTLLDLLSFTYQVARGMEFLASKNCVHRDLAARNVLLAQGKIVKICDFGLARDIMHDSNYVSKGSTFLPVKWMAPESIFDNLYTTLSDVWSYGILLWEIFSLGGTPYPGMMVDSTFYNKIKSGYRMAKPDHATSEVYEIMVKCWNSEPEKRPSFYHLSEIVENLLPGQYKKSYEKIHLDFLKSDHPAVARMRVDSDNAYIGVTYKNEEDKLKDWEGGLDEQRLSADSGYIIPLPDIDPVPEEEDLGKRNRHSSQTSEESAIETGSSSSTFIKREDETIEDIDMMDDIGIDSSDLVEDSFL

[8] = target: Rho-associated protein kinase 1 (Homo sapiens, UniProt Q13464); assay: Inhibition of ROCK1
Sequence of Rho-associated protein kinase 1 (Q13464 whole entry): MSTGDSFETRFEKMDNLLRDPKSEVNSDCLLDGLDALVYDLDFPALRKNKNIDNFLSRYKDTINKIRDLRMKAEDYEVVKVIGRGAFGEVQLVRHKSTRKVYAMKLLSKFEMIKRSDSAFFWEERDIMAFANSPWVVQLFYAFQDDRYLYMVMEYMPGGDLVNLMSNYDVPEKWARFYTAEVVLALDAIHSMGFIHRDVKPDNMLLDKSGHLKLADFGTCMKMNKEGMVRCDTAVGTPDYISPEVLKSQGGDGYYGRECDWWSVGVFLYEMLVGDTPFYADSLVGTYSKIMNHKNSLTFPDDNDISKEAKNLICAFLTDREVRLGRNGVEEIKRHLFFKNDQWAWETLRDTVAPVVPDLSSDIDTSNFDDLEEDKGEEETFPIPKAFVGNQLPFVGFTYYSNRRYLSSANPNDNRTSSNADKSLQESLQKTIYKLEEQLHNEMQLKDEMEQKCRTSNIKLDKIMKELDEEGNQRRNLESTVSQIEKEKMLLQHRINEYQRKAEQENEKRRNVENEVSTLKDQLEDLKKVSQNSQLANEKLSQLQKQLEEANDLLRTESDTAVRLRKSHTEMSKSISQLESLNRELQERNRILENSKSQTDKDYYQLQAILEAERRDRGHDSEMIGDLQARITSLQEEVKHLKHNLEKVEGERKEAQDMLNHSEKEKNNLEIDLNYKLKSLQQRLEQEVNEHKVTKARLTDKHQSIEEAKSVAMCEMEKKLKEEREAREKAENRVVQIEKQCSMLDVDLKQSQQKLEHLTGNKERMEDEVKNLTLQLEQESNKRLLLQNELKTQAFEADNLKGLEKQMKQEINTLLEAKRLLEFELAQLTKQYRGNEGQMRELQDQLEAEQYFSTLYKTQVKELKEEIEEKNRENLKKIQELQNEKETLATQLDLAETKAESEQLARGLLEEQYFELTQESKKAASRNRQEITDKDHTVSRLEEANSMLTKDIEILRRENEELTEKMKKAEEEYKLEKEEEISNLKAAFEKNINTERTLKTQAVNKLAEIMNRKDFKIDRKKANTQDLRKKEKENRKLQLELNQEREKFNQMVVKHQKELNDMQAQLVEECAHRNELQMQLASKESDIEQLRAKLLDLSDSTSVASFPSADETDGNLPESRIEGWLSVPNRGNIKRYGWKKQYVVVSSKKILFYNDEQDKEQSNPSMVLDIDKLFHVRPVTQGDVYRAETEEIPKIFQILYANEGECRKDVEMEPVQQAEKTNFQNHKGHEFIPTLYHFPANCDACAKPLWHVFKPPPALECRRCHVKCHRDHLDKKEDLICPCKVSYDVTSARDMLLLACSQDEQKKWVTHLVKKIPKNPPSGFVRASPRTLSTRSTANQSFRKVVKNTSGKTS

[9] = target: Tyrosine-protein kinase HCK (Homo sapiens, UniProt P08631); assay: Inhibition of HCK
Sequence of Tyrosine-protein kinase HCK (P08631 whole entry): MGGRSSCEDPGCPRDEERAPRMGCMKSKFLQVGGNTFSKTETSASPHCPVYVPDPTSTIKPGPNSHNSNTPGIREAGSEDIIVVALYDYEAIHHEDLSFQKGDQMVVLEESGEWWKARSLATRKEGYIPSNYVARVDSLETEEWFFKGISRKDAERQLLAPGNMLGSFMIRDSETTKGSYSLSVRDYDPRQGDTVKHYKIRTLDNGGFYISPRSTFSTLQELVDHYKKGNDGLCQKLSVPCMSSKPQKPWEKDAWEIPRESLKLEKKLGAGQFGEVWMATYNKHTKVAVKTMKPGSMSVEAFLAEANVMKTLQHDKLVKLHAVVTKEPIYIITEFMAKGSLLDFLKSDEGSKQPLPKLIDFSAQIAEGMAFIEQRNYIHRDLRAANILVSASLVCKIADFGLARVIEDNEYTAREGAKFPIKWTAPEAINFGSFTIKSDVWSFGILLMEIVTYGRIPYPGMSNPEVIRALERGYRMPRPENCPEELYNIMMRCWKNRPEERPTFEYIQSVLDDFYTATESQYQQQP

[10] = target: Proto-oncogene tyrosine-protein kinase Src (Homo sapiens, UniProt P12931); assay: Inhibition of SRC
[11] = target: Casein kinase I isoform gamma-1 (Homo sapiens, UniProt Q9HCP0); assay: Inhibition of CK1gamma1
Aurora kinase B = Aurora kinase B (Homo sapiens, UniProt Q96GD4); assay: Inhibition of Aurora B
[12] = target: Tyrosine-protein kinase Fyn (Homo sapiens, UniProt P06241); assay: Inhibition of FYN
[13] = target: Mitogen-activated protein kinase 14 (Homo sapiens, UniProt Q16539); assay: Inhibition of p38alpha
[14] = target: Serine/threonine-protein kinase Chk1 (Homo sapiens, UniProt O14757); assay: Inhibition of CHK1
[15] = target: Hepatocyte growth factor receptor (Homo sapiens, UniProt P08581); assay: Inhibition of Met
[16] = target: Mitogen-activated protein kinase 1 (Homo sapiens, UniProt P28482); assay: Inhibition of ERK2
Sequence of Mitogen-activated protein kinase 1 (P28482 whole entry): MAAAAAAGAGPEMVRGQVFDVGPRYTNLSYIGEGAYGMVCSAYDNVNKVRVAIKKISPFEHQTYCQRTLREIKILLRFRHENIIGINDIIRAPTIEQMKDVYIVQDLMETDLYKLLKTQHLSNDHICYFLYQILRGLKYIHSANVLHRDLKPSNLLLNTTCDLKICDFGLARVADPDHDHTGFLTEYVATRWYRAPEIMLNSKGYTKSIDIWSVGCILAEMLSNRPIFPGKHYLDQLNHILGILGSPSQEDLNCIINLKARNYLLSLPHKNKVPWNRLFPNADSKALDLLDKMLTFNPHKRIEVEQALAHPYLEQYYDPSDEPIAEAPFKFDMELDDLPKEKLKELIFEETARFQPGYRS

[17] = target: Cyclin-dependent kinase 2 (Homo sapiens, UniProt P24941); assay: Inhibition of CDK2
[18] = Inhibition of PKA
[19] = Inhibition of VEGFR2
[20] = target: MAP kinase-activated protein kinase 2 (Homo sapiens, UniProt P49137); assay: Inhibition of MK2
Sequence of MAP kinase-activated protein kinase 2 (P49137 whole entry): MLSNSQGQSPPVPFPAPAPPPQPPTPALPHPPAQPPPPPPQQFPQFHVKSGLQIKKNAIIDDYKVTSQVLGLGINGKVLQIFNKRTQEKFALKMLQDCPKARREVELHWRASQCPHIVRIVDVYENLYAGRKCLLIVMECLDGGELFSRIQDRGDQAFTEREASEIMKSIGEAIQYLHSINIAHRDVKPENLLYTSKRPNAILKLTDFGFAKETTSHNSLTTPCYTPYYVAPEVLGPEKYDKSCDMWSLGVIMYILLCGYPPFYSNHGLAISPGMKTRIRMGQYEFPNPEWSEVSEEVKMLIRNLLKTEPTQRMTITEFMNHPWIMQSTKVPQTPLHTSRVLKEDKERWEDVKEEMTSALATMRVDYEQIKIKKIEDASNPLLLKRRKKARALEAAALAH

[21] = target: Inhibitor of nuclear factor kappa-B kinase subunit beta (Homo sapiens, UniProt O14920); assay: Inhibition of IKK-beta
[22] = target: Mitogen-activated protein kinase kinase kinase kinase 2 (Homo sapiens, UniProt Q12851); assay: Inhibition of GCK
[23] = target: Cyclin-dependent kinase 1 (Homo sapiens, UniProt P06493); assay: Inhibition of CDK1
[24] = target: Ribosomal protein S6 kinase alpha-1 (Homo sapiens, UniProt Q15418); assay: Inhibition of RSk1

Sequence of Serine/threonine-protein kinase B-raf (P15056 whole entry): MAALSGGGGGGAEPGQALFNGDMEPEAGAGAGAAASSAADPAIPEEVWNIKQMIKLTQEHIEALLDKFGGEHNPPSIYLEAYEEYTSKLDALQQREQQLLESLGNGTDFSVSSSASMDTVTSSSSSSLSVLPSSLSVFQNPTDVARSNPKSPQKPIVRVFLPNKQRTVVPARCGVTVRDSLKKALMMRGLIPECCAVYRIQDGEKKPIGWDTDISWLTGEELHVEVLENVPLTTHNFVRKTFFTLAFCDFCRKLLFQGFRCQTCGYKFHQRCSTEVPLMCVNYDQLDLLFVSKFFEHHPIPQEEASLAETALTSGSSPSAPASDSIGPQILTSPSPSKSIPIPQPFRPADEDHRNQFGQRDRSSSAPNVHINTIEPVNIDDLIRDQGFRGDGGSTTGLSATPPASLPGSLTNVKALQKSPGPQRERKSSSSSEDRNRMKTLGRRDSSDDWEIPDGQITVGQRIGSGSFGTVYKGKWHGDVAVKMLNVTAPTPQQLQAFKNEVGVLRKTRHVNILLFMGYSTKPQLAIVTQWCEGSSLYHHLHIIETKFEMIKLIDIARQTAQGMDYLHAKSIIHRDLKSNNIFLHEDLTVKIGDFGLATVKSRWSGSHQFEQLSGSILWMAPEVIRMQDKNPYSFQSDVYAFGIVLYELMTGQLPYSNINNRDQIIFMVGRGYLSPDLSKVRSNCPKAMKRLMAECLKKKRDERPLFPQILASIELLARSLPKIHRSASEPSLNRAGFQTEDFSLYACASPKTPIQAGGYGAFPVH

With CC(=O)N1C[C@@H]2C[C@H]1CN2c1ccc(-c2ccnc3c(-c4ccc(F)c(O)c4)c(-c4ccncc4)nn23)cc1 the IC50 (A-375) was 210 nM.
Compound COc1cc(-c2c(-c3ccncc3)nn3c(-c4ccc(N5C[C@@H]6C[C@H]5CN6C)cc4C)ccnc23)ccc1F has an IC50 [1] of 1 nM and an IC50 (A-375) of 933 nM.
For COc1cc(-c2c(-c3ccncc3)nn3c(-c4ccc(N5C[C@@H]6C[C@H]5CN6)cc4)ccnc23)ccc1F, the IC50 (A-375) was 1200 nM.
CN1C2CCC1CN(c1ccc(-c3ccnc4c(-c5cccc(O)c5)c(-c5ccncc5)nn34)cc1)C2 gave an IC50 [1] of 0.9 nM, an IC50 (HT-29) of 270 nM and an IC50 (Caco-2) of 1300 nM. It also gave an IC50 (A-375) of 300 nM.
For COc1cccc(-c2c(-c3ccncc3)nn3c(-c4ccc(N5C[C@@H]6C[C@H]5CN6C)cc4)ccnc23)c1, the IC50 (A-375) was 760 nM.
For COc1cc(-c2c(-c3ccncc3)nn3c(-c4ccc(N5C[C@@H]6C[C@H]5CN6C)cc4)ccnc23)ccc1F, the IC50 (A-375) was 6000 nM.
In the case of CCN1C[C@@H]2C[C@H]1CN2c1ccc(-c2ccnc3c(-c4ccc(F)c(O)c4)c(-c4ccncc4)nn23)cc1, the IC50 [1] is reported as 0.51 nM and the IC50 (A-375) is reported as 200 nM.
Compound COc1cccc(-c2c(-c3ccncc3)nn3c(-c4ccc(N5C[C@@H]6C[C@H]5CN6)cc4)ccnc23)c1 has an IC50 [1] of 12 nM and an IC50 (A-375) of 1100 nM.
For COc1cccc(-c2c(-c3ccncc3)nn3c(-c4ccc(N5C[C@@H]6C[C@H]5CN6)cc4F)ccnc23)c1, the IC50 [1] was 0.44 nM and the IC50 (A-375) was 504 nM.
COc1cccc(-c2c(-c3ccncc3)nn3c(-c4ccc(N5CC6CCC(C5)N6C)cc4)ccnc23)c1 gave an IC50 [1] of 17 nM and an IC50 (A-375) of 1900 nM.
For CN1C2CCC1CN(c1ccc(-c3ccnc4c(-c5ccc(Cl)c(O)c5)c(-c5ccncc5)nn34)cc1)C2, the IC50 [1] was less than 0.32 nM and the IC50 (A-375) was 170 nM.
For CN1C[C@@H]2C[C@H]1CN2c1ccc(-c2ccnc3c(-c4cccc(O)c4)c(-c4ccncc4)nn23)c(Cl)c1, the IC50 [1] was less than 0.32 nM and the IC50 (A-375) was less than 10 nM.
In the case of CN1C[C@@H]2C[C@H]1CN2c1ccc(-c2ccnc3c(-c4ccc(F)c(O)c4)c(-c4ccncc4)nn23)cc1, the IC50 [1] is reported as less than 0.32 nM and the IC50 (A-375) is reported as 76 nM.
Compound Cc1cc(N2C[C@@H]3C[C@H]2CN3C)ccc1-c1ccnc2c(-c3ccc(F)c(O)c3)c(-c3ccncc3)nn12 has an IC50 [1] of less than 0.32 nM and an IC50 (A-375) of 15 nM.
Oc1cccc(-c2c(-c3ccncc3)nn3c(-c4ccc(N[C@H]5CN6CCC5CC6)cc4)ccnc23)c1 gave an IC50 [1] of 1 nM and an IC50 (A-375) of 385 nM.
Cc1cc(N2C[C@@H]3C[C@H]2CN3C)ccc1-c1ccnc2c(-c3cccc(O)c3)c(-c3ccncc3)nn12 gave an IC50 [1] of less than 0.32 nM and an IC50 (A-375) of 31 nM.
Oc1cccc(-c2c(-c3ccncc3)nn3c(-c4ccc(N5C[C@@H]6C[C@H]5CN6)cc4)ccnc23)c1 showed an IC50 [1] of 0.49 nM and an IC50 (A-375) of 300 nM.
Compound Cc1cc(N2C[C@@H]3C[C@H]2CN3)ccc1-c1ccnc2c(-c3cccc(O)c3)c(-c3ccncc3)nn12 has an IC50 (A-375) of 65 nM.
CN1C[C@@H]2C[C@H]1CN2c1ccc(-c2ccnc3c(-c4cccc(O)c4)c(-c4ccncc4)nn23)c(F)c1 gave an IC50 [1] of less than 0.32 nM and an IC50 (A-375) of 12 nM.
Compound Oc1cccc(-c2c(-c3ccncc3)nn3c(-c4ccc(N[C@@H]5CN6CCC5CC6)cc4)ccnc23)c1 has an IC50 [1] of 1.5 nM and an IC50 (A-375) of 370 nM.
CN1C[C@@H]2C[C@H]1CN2c1ccc(-c2ccnc3c(-c4cccc(O)c4)c(-c4ccncc4)nn23)cc1 showed an IC50 [2] of 2460 nM, an IC50 [1] of 0.38 nM and an IC50 [3] of 1760 nM. For the same compound, the IC50 [4] was 563 nM, the IC50 [5] was greater than 50 µM and the IC50 [6] was 119 nM. The IC50 [7] was 6.56 µM, the IC50 [8] was 17.6 µM and the IC50 [9] was 1240 nM. It also gave an IC50 [10] of 675 nM, an IC50 [11] of 9.51 µM and an IC50 (Aurora kinase B) of 25.5 µM. The IC50 [12] was 1940 nM, the IC50 [13] was 69 nM and the IC50 [14] was 18.6 µM. For the same compound, the IC50 [15] was 3.1 µM, the IC50 [16] was greater than 50 µM and the IC50 [17] was 26.4 µM. It also gave an IC50 (A-375) of 77 nM, an IC50 [18] of 1790 nM and an IC50 [19] of 222 nM. For the same compound, the IC50 [20] was 17.1 µM, the IC50 [21] was greater than 50 µM and the IC50 [22] was 4.1 µM. The IC50 [23] was 28.4 µM and the IC50 [24] was 9.71 µM.
With COc1cc(-c2c(-c3ccncc3)nn3c(-c4ccc(N5CC6CCC(C5)N6C)cc4)ccnc23)ccc1Cl the IC50 [1] was 9.7 nM and the IC50 (A-375) was 630 nM.
Work on Oc1cccc(-c2c(-c3ccncc3)nn3c(-c4ccc(NCC56CCN(CC5)CC6)cc4)ccnc23)c1 yielded an IC50 [1] of 2 nM and an IC50 (A-375) of 930 nM.
With Oc1cccc(-c2c(-c3ccncc3)nn3c(-c4ccc(N5C[C@@H]6C[C@H]5CN6)cc4F)ccnc23)c1 the IC50 [1] was less than 0.32 nM and the IC50 (A-375) was 23 nM.
Oc1cccc(-c2c(-c3ccncc3)nn3c(-c4ccc(N5C[C@@H]6C[C@H]5CN6)cc4Cl)ccnc23)c1 gave an IC50 [1] of less than 0.32 nM and an IC50 (A-375) of 16 nM.
Oc1cc(-c2c(-c3ccncc3)nn3c(-c4ccc(N5C[C@@H]6C[C@H]5CN6)cc4)ccnc23)ccc1F showed an IC50 [1] of less than 0.32 nM and an IC50 (A-375) of 150 nM.
Compound CCOC(=O)c1cnn2c(-c3cccc(NC(=O)c4cccc(C(F)(F)F)c4)c3)ccnc12 has an IC50 [1] of 1500 nM.
